From patent EP0398231B1, “Nucleoside analogs” (INSTITUTE OF ORGANIC CHEMISTRY AND BIOCHEMISTRY OF THE …, priority 1989, dated 1990)
Converted amounts (≈) assume the structure as drawn. Where a name gives a salt, the structure may show the parent alone. Read-outs that look alike come from different tables or passages of the source.

Legend:
MuLV = experiment: UV-XC plaque assay in SC-1 cells, MuLV; format: cell-based, murine leukemia virus; settings: Virus MuLV, Cell-line SC-1; read-out: ID50 (the source's name)
Experimental: (§1) The compounds were evaluated for antiviral activity against murine leukemia virus (MuLV) strains using the UV-XC plaque assay (Rowe, et al., Virology, 42:1136, 1970).
(§2) The MuLV strains were grown in feral mouse cells (SC-1) and used for antiviral tests using the UV-XC plaque assay. Briefly, SC-1 cells are grown as monolayers in 4-well tissue culture plates and inoculated with approximately 50-100 plaque forming units of MuLV in 0.5 ml of 5% EMEM containing 20 µg/ml DEAE/Dextran. After 1 hour adsorbtion, the inoculum is removed and 5 ml of 5% EMEM containing three-fold dilutions of the appropriate drug are added. Five days later, the cultures are UV-irradiated with an ultraviolet lamp and rat XC sarcoma cells are added to the cultures. Three-four days after UV-irradiation, the cell cultures are stained with Giemsa stain and the plaques are enumerated. Antiviral activity is expressed in terms of the reduction in the mean number of UX-XC plaques counted in the drug treated, virus-infected cultures compared with mean number of plaques counted in untreated, virus-infected control cultures.
(§3) This compound was evaluated for anti-retroviral activity by the methods described in Examples 43 and 44. AZT controls were run simultaneously to confirm the validity of the test.

HIV (LAV strain) = experiment: HIV in vitro assay in CEM cells, p-24 gag protein ELISA; format: cell-based
Experimental: The HIV in vitro assay described as follows was used: The anti-HIV/LAV activity is measured in cultures of CEM-F cells.

SC-1 = format: cell-based; settings: mouse, sc-1 cells
HIV = HIV assay in MT-4 cells; format: cell-based; settings: Virus HIV, Cell-line MT-4; read-out: ID50 (the source's name)
Experimental: as §3

R-MuLV = experiment: UV-XC plaque assay in SC-1 cells, R-MuLV; format: cell-based, murine leukemia virus
Experimental: as §1, §2

Herpes simplex virus - 2 = experiment: Survival of mice inoculated with Herpes simplex virus-2, 21 day protocol; format: in vivo
Experimental: A preferred example of one of these compounds, known as (S)-HPMPA (Formula 4') was disclosed by DeClercq, et al., in Nature, 1986, 323, pp. 464-467 and earlier by Holy, et al., Nucleic Acids Research, Symposium Series No. 14, 1984, pp. 277-278. Phosphonate compounds which are HPMPA analogs are described in South African Patent 1987/8607. […] In a 21 day protocol 30% of a group of animals treated i.p. with 50 mg/kg/day of (S)-HPMPA survived. [drawing 4]

HSV-2 = experiment: Plaque reduction assay in vero cells, HSV-2; format: cell-based, Herpes simplex virus; settings: Human alphaherpesvirus 2, 48 hour incubation, read-out: ID50 HVS-2
Experimental: (§4) Herpes simplex virus (HSV) strains were grown and titered at 37°C in vero cells (African Green Monkey Kidney cells) and used for virus work before the tenth passage.
(§5) Cells were grown and maintained in Earle's Minimum Essential Medium (EMEM), Gibco Laboratories, supplemented with 0.75% sodium bicarbonate, 2mM 1-glutamine, Pen-strep. and 5-10% fetal calf serum.
(§6) The titer of HSV strains is determined by a plaque titration method (Roizman and Roane, Virology, 115:75-79, 1961). Tissue culture 24-well petri dishes are seeded with cells and used for assays when approximately 75% monolayer. Volumes (0.1ml) of logarithmic dilutions of the virus strain are inoculated onto each of triplicate wells, and absorbed for one hour with intermittent shaking. […] The number of plaques is counted, the triplicate is averaged, and the number of plaque-forming units per ml is calculated.
(§7) The compounds are tested for activity against the herpes simplex stains using a stock solution of each compound freshly prepared. […] The antiviral efficacy of each compound is determined using the plaque reduction assay described above. […] After a 48-hour incubation period, at 37°C in a 5% CO2 atmosphere, the overlay medium is removed, the cells are stained as described above, and plaques are counted. The counts of triplicate wells are averaged, and the number of plaques in the presence of each drug dilution are calculated. […]

HSV-1 = experiment: Plaque reduction assay in vero cells, HSV-1; format: cell-based, Herpes simplex virus; settings: Human alphaherpesvirus 1, 48 hour incubation, read-out: ID50 HVS-1
Experimental: as §4, §5, §6, §7

[1] = tested on: Herpes simplex virus-1 (HL-34 strain); experiment: HSV-1 systemic infection in mice, survival at 21 days; format: in vivo; settings: i.p.; for Survival: BID for 5 consecutive days, from 3 hours post-infection, 21 days
Experimental: Groups of ten mice were inoculated intraperitoneally with from 200 to 600 PFU/0.2ml of Herpes simplex virus-1 (HL-34 strain). Different doses of test compound were administered to separate groups of animals on a BID basis for five consecutive days commencing three hours after inoculation. Treatment was by an intraperitoneal route. The experiment was teminated 21 days post inoculation and the number of survivals in each group was counted. The mean survival time (MST, days) was calculated.

[2] = Murine leukemia virus, SC1, UV-XC plaque assay, SC-1 cells, read-out: ID50 R-MuLV

9-[2,3-Dideoxy-2,3-didehydro-4-β-phosphonomethoxy-β-D-erythrofuranosyl]adenine ammonium salt [Example 50]
IC50 (MuLV): < 100 nM | IC50 (HIV (LAV strain); Virus HIV, Cell-line CEM, read-out: ID50 (the source's name)): 45000 nM | CC50 (SC-1): > 100000 nM | IC50 (HIV): 1500 nM | IC50 (R-MuLV; Virus MuLV-R, Cell-line SC-1, read-out: ID50 (the source's name)): 10 nM

Nc1ncnc2c1ncn2C[C@@H](CO)OCP(=O)(O)O [(S)-HPMPA]
activity in mice inoculated with Herpes simplex virus - 2 (in words) (Herpes simplex virus - 2; in applicant's hands): only slightly active | survived (Herpes simplex virus - 2; mice inoculated with Herpes simplex virus - 2, i.p. 50 mg/kg/day, 21 day protocol): 30%

Nc1nc2c(ncn2COCCO)c(=O)[nH]1 [ACV, Acyclovir, reference compound]
IC50 (HSV-2): 0.5 µg/mL (≈ 2.22 µM) | IC50 (HSV-1): 0.5 µg/mL (≈ 2.22 µM) | Survival ([1]; Dose 100 mg/kg/d): 7/10 | Survival ([1]; Dose 200 mg/kg/d): 6/7

Cc1cn([C@H]2C[C@H](N=[N+]=[N-])[C@@H](CO)O2)c(=O)[nH]c1=O [AZT, reference compound]
IC50 (HIV (LAV strain); Human immunodeficiency virus 1, CCRF-CEM, 192 h, read-out: ID50 HIV): 0.1 µg/mL | IC50 (R-MuLV; [2]): 0.05 µg/mL

Nc1nc2c(ncn2COCOCP(=O)(O)O)c(=O)[nH]1 [Compound 8, 9-[3-(Phosphonomethoxy)methoxymethyl]guanine disodium salt]
IC50 (HSV-2): 11 µg/mL | IC50 (HSV-1): 2.6 µg/mL | Survival ([1]; Dose 10 mg/kg/d): 3/10 | Survival ([1]; Dose 100 mg/kg/d): 9/10 | Survival ([1]; Dose 300 mg/kg/d): 10/10 | activity compared with ACV in vivo (in words) ([1]; HSV-1 systemic infection in mice): equally as active as ACV

Cc1cn(C2C=CC(OCP(=O)(O)O)O2)c(=O)[nH]c1=O [Compound 25, 1-[2,3-Dideoxy-2,3-didehydro-4-phosphonomethoxy-beta-D-erythrofuranosyl]thymine disodium salt]
IC50 (HIV (LAV strain); Human immunodeficiency virus 1, CCRF-CEM, 192 h, CEM-F cells, 8 days, p-24 gag protein ELISA, read-out: ID50 HIV): 1.8 µg/mL | IC50 (R-MuLV; [2]): 0.3 µg/mL
